Assays:
Erwinia amylovora = assay: Erwinia bioassay: culture filtrates or test solutions in agar well, zone of inhibition; type: cell-based; settings: 300 μL per well, 28° C., 48 hours
Protocol: Assays of Culture Filtrates, Live Bacteria, and FVG-Analogs for Antibiosis Activity against Erwinia amylovora and Other Bacterial Species and Strains: The potential antibiosis activities of various P. fluorescens isolates, their culture filtrates, and the FVG analogs prepared as described above were tested against Erwinia amylovora and a number of other bacterial species and strains listed in Table 4. For this purpose, cryovial stocks of the test organisms (including P. fluorescens lines from the stocks described above) were prepared from bacterial cultures grown in LB liquid medium. For this specific experimental purpose, aliquots of these cultures were stored in cryovials at −80° C. in LB medium containing glycerol at a final concentration of 15% (v/v).
Bacterial lawns of test organisms were prepared from cells grown by inoculating 10 μL of the 15% glycerol stocks into 5 mL of liquid LB Medium. The cells were allowed to multiply overnight at 28° C. with shaking (200 rpm). The resulting bacterial suspension was adjusted with water to an optical density of 0.2 at 600 nm (Spectronic® 20 Spectrophotometer; Milton Roy Co., Rochester N.Y.). 300 μL aliquots of the diluted suspension were spread onto the agar surfaces of Petri plates (100×15 mm) containing […] of 925 Minimal Medium (prepared and amended as described below). […]

seeds of grassy weeds = settings: as disclosed in U.S. patent application Ser. No. 12/567,590; cited from earlier work
[1] = as described in U.S. patent application Ser. No. 12/567,590; cited from earlier work

With `NOCC(=O)O` [AOA, 2-aminooxyacetic acid] the “Growth inhibition of E. amylovora (in words)” value (Erwinia amylovora; AOA solution, pH 6.4) was “effective growth inhibitor”.

For `NC(C=CONC=O)C(=O)O` (stereo not shown) [FVG, 2-amino-4-formylaminooxybut-3-enoic acid], the “Germination arrest in the seeds of grassy weeds (in words)” value (seeds of grassy weeds) is given as “ability to produce germination arrest” and the “Solubility in organic solvents (in words)” value [1] is given as “insoluble or sparingly soluble in organic solvents”.

In the case of `NCCOC=CC(N)C(=O)O` (stereo not shown) [AVG, 2-amino-4-aminoethoxybut-3-enoic acid], the “Inhibitory effect on growth of E. amylovora (in words)” value (Erwinia amylovora; commercial sample of pure AVG-HCl, 3 mM) is reported as “inhibitory effect of AVG on E. amylovora has subsequently been confirmed”.

From patent US20100189798A1, “CONTROL OF ERWINIA AMYLOVORA WITH VINYLGLYCINES AND BACTERIA THAT PRODUCE VINYLGLYCINES” (The State of Oregon acting by and through the State Board …, priority 2009, published 2010)
